Experimental data from US11377393B2, “Method and composition for improving plant growth” (DANSTAR FERMENT AG, priority 2016, dated 2022).

Test system: triticale (var. Bellac)
Experiment: Effect of inactive yeast and/or yeast derivatives in combination with nitrogen sources on plant growth (pot test, dry weight of aerial parts)
Assay type: in vivo
Details: triticale seeds in 20 g soil, 30 days, nitrogen 15 kg/ha, applied liquid to soil, letters = significance groups (p<0,1 Dunnett)
Procedure: Seeds of triticale (var. Bellac) coated with insectide Gaucho 350 and fungicide Rédigo® (Bayer) were used in the study. The tested nitrogenous components were the following: urea and calcium nitrate.
Two seeds were grown in individual plastic pots or cells containing equal quantity of soil (20 g). The treatments T1 to T4, T6, T7, T9, T10 and T13 (see Table 1) were distributed randomly in lines, with each line comprising of all treatments. Treatments T1 to T4, T6, T7, T9, T10 and T13 were repeated seven times and the experiment was repeated twice over time.
The treatments T1 to T4, T6, T7, T9, T10 and T13 were applied, in a liquid form, directly in the soil surrounding the seeds. The treatments were mixed with sterile distilled water in a total 5 ml samples. For the negative control, 5 ml of sterile distilled water was added. Seeds were grown under controlled conditions for 30 days. Growth conditions were 18/15 C for 10/14 hours (day/night) and 70% RH. Growth measurements were taken by measuring length and dry weight of the aerial part of the plants.
The growth in weight of the plants (the dry weight of the aerial parts) for each treatment was compared by statistical analysis.

Row | Compound | Dry weight gain average (Table 5, urea series) | Dry weight gain average (Table 4, calcium nitrate series)
1 | NC(N)=O [Treatment T3, Urea] | 0.153bc | 
2 | O=[N+]([O-])[O-].O=[N+]([O-])[O-].[Ca+2] [Treatment T4, Calcium nitrate] |  | 0.106b
